Measured values published in US8791258B2, “Pro-fluorescent probes” (The Regents of the University of California, priority 2008, dated 2014).

Columns and labels:
[1] = Absorption and emission properties, fluorescence quantum yield; format: physicochemical; details: 20 mM HEPES, pH 7; for fluorescence quantum yield Φ: by reference to fluorescein; for extinction coefficient ε at 510 nm: λabs 510 nm
Method: (§1) Millipore water was used to prepare all aqueous solutions. All spectroscopic measurements were performed in 20 mM HEPES buffer, pH 7. Absorption spectra were recorded using a Varian Cary 50 spectrophotometer (Walnut Creek, Calif.). Fluorescence spectra were recorded using a Photon Technology International Quanta Master 4 L-format scanning spectrofluorometer (Lawrenceville, N.J.) equipped with an LPS-220B 75-W xenon lamp and power supply, A-1010B lamp housing with integrated igniter, switchable 814 photon-counting/analog photomultiplier detection unit, and MD5020 motor driver. Samples for absorption and fluorescence measurements were contained in 1-cm×1-cm quartz cuvettes (1.4- or 3.5-mL volume, Starna, Atascadero, Calif.).
as §1, with “recorded on” for “recorded using”, “Creek, Calif.) and fluorescence” for “Creek, Calif.). Fluorescence”, “and emission” for “and fluorescence”, “cuvettes (1.5-mL” for “cuvettes (1.4- or 3.5-mL”, “Calif.). Fluorescence quantum yields were determined by reference to fluorescein in 0.1M NaOH (Φ=0.95).” for “Calif.).”

HeLa cells = format: cell-based; details: 5 μM probe; 50 nM MitoTracker Deep Red, 500 nM LysoTracker Red
Method: 100 μM H2O2 was then added to one of the petri dishes. At 20 minutes, 50 nM MitoTracker Deep Red, 500 nM Lysotracker Red, and 1 μM Hoechst 33342 were added to both dishes. After an additional 20 minutes (40 minute stimulation total), the two coverslips were put in a single, new petri dish filled with fresh DPBS and confocal images were taken (3.2 μsec pixel time, 100% laser power for 514 line, 4.1% laser power for the 633 line, 26% laser power for the 543 line, scanned using 12-bit multi-track scan mode using a constant receiver gain). Shown above are signals from MitoPY1 (a), MitoTracker Deep Red (b), LysoTracker Red (c), an overlay of MitoTracker Deep Red and MitoPY1 (d), Hoechst (e), and a brightfield image (f) of cells not treated with H2O2, as well as signals from MitoPY1 (g), MitoTracker Deep Red (h), LysoTracker Red (i), an overlay of MitoTracker Deep Red and MitoPY1 (j), Hoechst (k), and a brightfield image (l) of cells treated with H2O2. A 20 μm scale bar shown for all images.
HeLa cells incubated with 5 μM MitoPY1 for 60 min at 37° C. and imaged with MitoPY1 (a), MitoTracker Red and Hoechst (overlay, b), and MitoPY1 with MitoTracker Red (overlay, c). HeLa cells incubated with 5 μM MitoPY1 for 60 min at 37° C. with 100 μM H2O2 added for the final 40 min and imaged with MitoPY1 (d), MitoTracker Red and Hoechst (overlay, e), MitoPY1 and MitoTracker Red (overlay, f), and brightfield (g) with 20 μm scale bar. HeLa cells incubated with 5 μM MitoPY1 for 60 min at 37° C. and imaged with MitoPY1 (h), MitoTracker Red and Hoechst (overlay, i), and MitoPY1 with MitoTracker Red (overlay, j). HeLa cells incubated for 24 h with 1 mM paraquat, then washed and incubated with 5 μM MitoPY1 for 60 min at 37° C. and imaged with MitoPY1 (k), MitoTracker Red and Hoechst (overlay, l), MitoPY1 and MitoTracker Red (overlay, m), and brightfield (n) with 20 μm scale bar.
HEK293 cells were cultured in DMEM (Invitrogen) supplemented with 10% fetal bovine serum (FBS, Hyclone) and glutamine (2 mM). CHO.K1 cells were cultured in DMEM with F-12 supplements, glutamax (Invitrogen), and 5% FBS. Cos-7 cells were cultured in DMEM with high glucose, glutamax, 10% FBS, and non-essential amino acids (Invitrogen). HeLa cells were cultured in DMEM with high glucose, glutamax, and 10% FBS. Two days before imaging, cells were passaged and plated on 18-mm glass coverslips. For all experiments, solutions of dyes (from 5 mM stocks in DMSO) were made in DBPS with calcium chloride and magnesium chloride (Sigma). H2O2 was added by bath application to the medium from a 100 mM aqueous stock. For paraquat treatment, HeLa cells were cultured as described above. One day prior to imaging, 1 mM paraquat was added to cells from a 0.5 M stock solution in water. An equal amount of water was added to control cells at the same time. Cells were then incubated at 37° C., 5% CO2. After 24 hours, the media was exchanged for DPBS with 5 μM dye and incubated for 1 hour.
Confocal fluorescence imaging studies were performed with a Zeiss LSM510 NLO Axiovert 200 laser scanning microscope and a 63× Achroplan IR water-immersion objective lens. Excitation of PY-loaded cells at 510 nm was carried out with an Ar laser and emission was collected using a META detector between 527-580 nm. MitoTracker Deep Red was excited with a 633-nm line and emission was collected between 666-698 nm. LysoTracker Red was excited with a 543-nm line and emission was collected between 580-644 nm. Excitation of Hoechst 33342 was carried out using a MaiTai two-photon laser at 780-nm pulses (mode-locked Ti:sapphire laser, Tsunami Spectra Physics) and emission was collected between 452-537 nm. Image analysis was performed in Adobe Photoshop.
MitoPY1 was tested for its ability to both target the mitochondria and respond to H2O2 in living biological systems. […] Again, co-staining with MitoTracker confirms that the dye is retained in the mitochondria and detects localized rises in H2O2 concentrations.

[2] = Fluorescence response to various ROS (H2O2 selectivity); details: 20 mM HEPES, pH 7, 25° C.
Method: FIG. 7 is the fluorescence response of 5 μM PF1 to various ROS (10 mM O2^−, 100 μM for all other ROS). .OH and .Ot-Bu were generated by reaction of Fe^2+ with H2O2 or tert-butyl hydroperoxide (TBHP), respectively. NO was delivered using S-nitrosocysteine (SNOC). Spectra were acquired in 20 mM HEPES, pH 7, and all data were obtained after incubation with the appropriate ROS at 25° C. for 1 h. Collected emission was integrated between 460 and 700 nm (λexc=450 nm).
FIG. 8 is the fluorescence response of 5 μM PR1 to various ROS (10 mM O2^−, 100 μM for all other ROS). .OH and .O^tBu were generated by reaction of Fe^2+ with H2O2 or tert-butyl hydroperoxide (TBHP), respectively. NO was delivered using S-nitrosocysteine (SNOC). Spectra were acquired in 20 mM HEPES, pH 7, and all data were obtained after incubation with the appropriate ROS at 25° C. for 30 min. Collected emission was integrated between 570 and 800 nm (λexc=560 nm).
FIG. 9 is the fluorescence response of 10 μM PX1 to various ROS (10 mM O2^−, 100 μM for all other ROS). .OH and .Ot-Bu were generated by reaction of Fe^2+ with H2O2 or tert-butyl hydroperoxide (TBHP), respectively. NO was delivered using S-nitrosocysteine (SNOC). Spectra were acquired in 20 mM HEPES, pH 7, and all data were obtained after incubation with the appropriate ROS at 25° C. for 1 h. Collected emission was integrated between 370 and 600 nm (λexc=350 nm).
as §1
FIG. 7, FIG. 8 and FIG. 9 compare the relative reactivities of boronate-based PF1, PR1, and PX1, respectively, toward various ROS.

HEK cells = assay: Confocal and two-photon fluorescence imaging of H2O2 in live HEK cells
Method: (a) Fluorescence image of HEK cells incubated with 5 μM PF1 for 5 min at 25° C. (b) Fluorescence image of PF1-stained HEK cells treated with 100 μM H2O2 for 11 min at 25° C. Excitation was provided at 488 nm, and emission was collected in a window from 505 to 580 nm. Scale bar=27 μm.
(a) Fluorescence image of HEK cells incubated with 10 μM PR1 for 10 min at 25° C. (b) Fluorescence image of PR1-stained HEK cells treated with 100 μM H2O2 for 30 min at 25° C. Excitation was provided at 543 nm, and emission was collected in a window from 548 to 644 nm. Scale bar=18 μm.
(a) Fluorescence image of HEK cells incubated with 10 μM PX1 for 2-3 min at 25° C. (b) Fluorescence image of PX1-stained HEK cells treated with 100 μM H2O2 for 30 min at 25° C. Two-photon excitation was provided at 704 nm, and emission was collected in a window from 420 to 500 nm. Scale bar=18 μm.
HEK 293T cells were cultured in Dulbecco's Modified Eagle Medium (DMEM, Invitrogen, Carlsbad, Calif.) supplemented with 10% Fetal Bovine Serum (FBS, Invitrogen), glutamine (2 mM), and penicillin/streptomycin (50 μg/ml, Invitrogen). One day before imaging, cells were passed and plated on 18-mm glass coverslips coated with poly-L-lysine (50 μg/ml, Sigma, St. Louis, Mo.). Immediately before the experiments, cells were washed with PBS buffer, incubated with the probe in PBS, and imaged.
Confocal fluorescence imaging was performed with a Zeiss LSM510 META laser scanning microscope containing an Axioplan 2 MOT upright microscope and a 40× water-immersion objective lens. Excitation of PF1-loaded cells at 488 nm was carried out with an argon ion laser, and emission was Collected in a window from 505 nm to 580 nm using a META detection system. Excitation of PR1-loaded cells at 543 nm was carried out with a HeNe laser, and emission was collected in a window from 548 nm to 644 nm using a META detector. PF1 or PR1 were incubated with live cell samples for 5 to 10 min. Addition of H2O2 (10 to 100 μM) to cell samples was performed directly on the microscope stage by bath application to the media.
Two-photon fluorescence imaging of PX1 was carried out using an inverted Zeiss LSM510 Axiovert 200M microscope with a NeoFLUAR 40×/1.3 NA oil-immersion objective lens. Samples were excited by 704-nm pulses from a mode-locked Ti:Sapphire laser (Tsunami, SpectraPhysics, 120-150 fs pulse width, 80 MHz repetition rate). The emission light was filtered with a 80-nm wide bandpass filter centered at 460 nm (460BP40, Chroma) and detected with the non-descanned detector (NDD) of the LSM510.

[3] = cited from earlier work

SMILES: CC(=O)N1CCN(c2ccc3c(c2)Oc2cc(B4OC(C)(C)C(C)(C)O4)ccc2C32OC(=O)c3ccccc32)CC1 (centres unmarked) [ContPY1]
- fluorescence quantum yield Φ [1]: 0.018
- extinction coefficient ε at 515 nm of the corresponding rhodol formed with H2O2 ([1]; after reaction with H2O2, 515 nm): 38,200 M^−1 cm^−1
- fluorescence quantum yield Φ of the corresponding rhodol formed with H2O2 ([1]; after reaction with H2O2, λem 543 nm): 0.388
- extinction coefficient ε at 404 nm ([1]; λabs 404 nm): 4,100 M^−1 cm^−1
- extinction coefficient ε at 490 nm ([1]; λabs 490 nm): 15,600 M^−1 cm^−1
- extinction coefficient ε at 510 nm [1]: 16,130 M^−1 cm^−1
- subcellular localization (co-staining with MitoTracker Deep Red, LysoTracker Red) (HeLa cells): only MitoPY1 targets the mitochondria

SMILES: O=C1OC2(c3ccc(O)cc3Oc3cc(N4CCN(CCCC[P+](c5ccccc5)(c5ccccc5)c5ccccc5)CC4)ccc32)c2ccccc21 (centres unmarked) [MitoPY1ox]
- fluorescence quantum yield Φ [1]: 0.405
- extinction coefficient ε at 510 nm [1]: 22,300 M^−1 cm^−1
- subcellular localization (co-staining with MitoTracker Deep Red, LysoTracker Red) (HeLa cells): only MitoPY1 targets the mitochondria

SMILES: CC1(C)OB(c2ccc3c(c2)Oc2cc(B4OC(C)(C)C(C)(C)O4)ccc2N3)OC1(C)C [PR1, 3,7-Bis(pinacolatoboron)phenoxazine]
- higher response for H2O2 over .OH ([2]; 100 μM ROS, .OH from Fe2+ with H2O2): > 200 fold
- higher response for H2O2 over .OtBu ([2]; 100 μM ROS, .OtBu from Fe2+ with TBHP): > 200 fold
- higher response for H2O2 over NO ([2]; 100 μM ROS, NO delivered using SNOC): > 200 fold
- higher response for H2O2 over O2− ([2]; 10 mM O2−, 100 μM H2O2): > 1000 fold
- intracellular background fluorescence of probe-loaded cells before H2O2 (HEK cells; 5-10 μM probe, 2-10 min at 25° C.): virtually no background fluorescence
- cell viability during imaging (HEK cells; after probe incubation and H2O2 treatment, brightfield): cells are viable throughout the experiments
- membrane permeability / cell entry (HEK cells; live HEK cells): membrane-permeable
- intracellular fluorescence after addition of H2O2 (HEK cells; probe-loaded cells, 10-100 μM H2O2): Striking increases in intracellular red fluorescence

SMILES: O=C(O)c1ccccc1C1c2cc(Cl)c(O)cc2Oc2cc(O)c(Cl)cc21 [DCFH, 2′,7′-dichlorodihydrofluorescein]
- fluorescence increase by reaction with .OH or peroxynitrite (ONOO−) ([3]; .OH or ONOO−): ca. 7000 fold
- fluorescence increase upon addition of H2O2, previously reported probes ([3]; H2O2): 190 fold
- fluorescence increase with NO ([3]; NO): 150 fold
- fluorescence increase with O2− ([3]; O2−): 67 fold
- fluorescence increase upon light-induced autoxidation ([3]; light-induced autoxidation): 2000 fold
